# Laboratory results taken from patent US8338434B2, “Inhibitors of Akt activity” (GlaxoSmithKline LLC, priority 2007, dated 2012).
# Target: T1, full length AKT1 (Homo sapiens, UniProt P31749)
# T1 construct: His tag (from vector pFastBacHTb; purified on Nickel Sepharose) (N); made in house; host or cells: baculovirus; Sf9 / T. ni insect cells
# Assay: Full-Length AKT Enzyme Assay (substrate phosphorylation, SPA)
# Type: biochemical
# Settings: in at least one experimental run; pIC50 = -log(IC50), IC50 in molar units; 10 nM activated AKT enzyme, 4 uM ATP, 8 uM peptide; read-out: pIC50 value against full length AKT1 (converted)
# Source text: Cloning of Full-Length Human (FL) AKT1:
# Full-length human AKT1 gene was amplified by PCR from a plasmid containing myristylated-AKT1-ER (gift from Robert T. Abraham, Duke University under MTA, described in Klippel et al. in Molecular and Cellular Biology 1998 Volume 18 p. 5699) using the 5′ primer: SEQ. ID NO: 2 5′ […] 3′ and the 3′ primer: SEQ. ID NO: 3 […] 3′. The 5′ primer included a BamHI site and the 3′primer included an XhoI site for cloning purposes. The resultant PCR product was subcloned in pcDNA3 as a BamHI/XhoI fragment. A mutation in the sequence (TGC) coding for a Cysteine^25 was converted to the wild-type AKT1 sequence (CGC) coding for an Arginine^25 by site-directed mutagenesis using the QuikChange® Site Directed Mutagenesis Kit (Stratagene). The AKT1 mutagenic primer: SEQ. ID NO: 4 5′ […] and selection primer: SEQ. […] For expression/purification purposes, AKT1 was isolated as a BamHI/XhoI fragment and cloned into the BamHI/XhoI sites of pFastbacHTb (Invitrogen).
# Expression was done using the BAC-to-BAC Baculovirus Expression System from Invitrogen (catalog #10359-016). […]
# Compounds of the present invention were tested for AKT 1, 2, and 3 protein serine kinase inhibitory activity in substrate phosphorylation assays. […] Substrate phosphorylation was detected by the following procedure. […]
# T1 sequence (P31749 whole entry): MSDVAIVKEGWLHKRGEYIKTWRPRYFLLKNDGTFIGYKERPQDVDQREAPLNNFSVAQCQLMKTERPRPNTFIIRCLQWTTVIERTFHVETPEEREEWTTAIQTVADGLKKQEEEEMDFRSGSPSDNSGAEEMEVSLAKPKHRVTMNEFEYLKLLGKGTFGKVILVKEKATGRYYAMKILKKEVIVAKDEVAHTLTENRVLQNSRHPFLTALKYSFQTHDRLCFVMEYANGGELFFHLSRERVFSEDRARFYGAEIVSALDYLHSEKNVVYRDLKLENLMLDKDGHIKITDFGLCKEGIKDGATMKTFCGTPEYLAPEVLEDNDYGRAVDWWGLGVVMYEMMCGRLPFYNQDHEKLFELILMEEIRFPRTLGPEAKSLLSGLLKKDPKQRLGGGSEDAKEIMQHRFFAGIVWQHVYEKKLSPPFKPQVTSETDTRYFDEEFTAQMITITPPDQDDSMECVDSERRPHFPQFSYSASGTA
structure (smiles),measurement,value
"Cn1nccc1-c1ccc(C(=O)NC(CN)Cc2ccccc2)cn1 (stereo not shown) [Example 2, N-[2-amino-1-(phenylmethyl)ethyl]-6-(1-methyl-1H-pyrazol-5-yl)-3-pyridinecarboxamide]",IC50,10 nM
